Results on 16 compounds are retold here after ChEMBL document CHEMBL3779790, “Novel Imbricatolic acid derivatives as protein tyrosine phosphatase-1B inhibitors: Design, synthesis, biological evaluation and molecular docking” (Bioorg Med Chem Lett, 2016).

In test [1] the target is T1, Tyrosine-protein phosphatase non-receptor type 1 (Homo sapiens) (UniProt P18031).
T1 sequence (whole entry): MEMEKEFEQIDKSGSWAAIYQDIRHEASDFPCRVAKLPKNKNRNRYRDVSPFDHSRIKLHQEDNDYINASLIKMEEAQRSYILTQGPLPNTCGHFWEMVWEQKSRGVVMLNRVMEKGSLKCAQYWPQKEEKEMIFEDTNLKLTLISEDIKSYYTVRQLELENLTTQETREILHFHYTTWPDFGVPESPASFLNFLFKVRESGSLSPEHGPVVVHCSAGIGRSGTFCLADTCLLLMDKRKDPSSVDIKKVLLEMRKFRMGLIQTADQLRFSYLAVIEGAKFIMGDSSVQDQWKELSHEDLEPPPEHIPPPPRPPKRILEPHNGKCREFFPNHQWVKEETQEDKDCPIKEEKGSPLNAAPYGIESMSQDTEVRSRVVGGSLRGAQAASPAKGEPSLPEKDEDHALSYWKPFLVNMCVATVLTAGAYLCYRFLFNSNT
In words: Inhibition of human recombinant PTP-1B using IR5 insulin receptor residues as substrate at 10 uM after 30 mins by malachite green assay.

Test [2] addresses T1, Tyrosine-protein phosphatase non-receptor type 1 (Homo sapiens). Briefly: Inhibition of human recombinant PTP-1B using IR5 insulin receptor residues as substrate at 30 uM after 30 mins by malachite green assay.
Test [3] has the same target. Briefly: Inhibition of human recombinant PTP-1B using IR5 insulin receptor residues as substrate at 1 uM after 30 mins by malachite green assay.
Test [4] addresses T2, Tyrosine-protein phosphatase non-receptor type 1 (Homo sapiens, UniProt P18031).
T2 sequence (P18031 whole entry): T1 sequence (whole entry)
In words: Inhibition of human recombinant PTP-1B using IR5 insulin receptor residues as substrate after 30 mins by malachite green assay.

Test [5] has as its target T1, Tyrosine-protein phosphatase non-receptor type 1 (Homo sapiens). Briefly: Inhibition of human recombinant PTP-1B using IR5 insulin receptor residues as substrate at 5 uM after 30 mins by malachite green assay.
The target is the same in test [6]. Briefly: Inhibition of human recombinant PTP-1B using IR5 insulin receptor residues as substrate at 100 uM after 30 mins by malachite green assay.

Take `Cc1ccc(C(=O)Nc2ccc(S(=O)(=O)O)c3cc(S(=O)(=O)O)cc(S(=O)(=O)O)c23)cc1NC(=O)c1cccc(NC(=O)Nc2cccc(C(=O)Nc3cc(C(=O)Nc4ccc(S(=O)(=O)O)c5cc(S(=O)(=O)O)cc(S(=O)(=O)O)c45)ccc3C)c2)c1`: the inhibition (in general, the percentage by which the read-out fell short of the control) in test [1] was 64.3%.
On the same count and under the same terms, the result for `C=C1CC[C@@H]2[C@](C)(CCC[C@]2(C)N=C=O)[C@H]1CC[C@H](C)CCO` reads 41.3%.
Turning to `C=C1CC[C@@H]2[C@](C)(CCC[C@]2(C)NC(N)=O)[C@H]1CC[C@H](C)CNC(N)=O`, the inhibition in test [2] was 67.2%; in test [3] it was 9.3%; in test [5], 37.3%; in test [6], 79.2%; in test [1], 65.8%. In addition, the IC50 (in general, the point on the concentration scale where inhibition reaches its midpoint) in test [4] turned out to be 6.8 µM.
For `C=C1CC[C@@H]2[C@](C)(CCC[C@]2(C)C(=O)O)[C@H]1CC[C@H](C)CC(=O)O`, the inhibition in test [1] stood at 35.6%.
The same measure, in the same setting: next, `C=C1CC[C@H]2[C@@](C)(COC(C)=O)CCC[C@]2(C)[C@H]1CC[C@H](C)CCOC(C)=O`: 34.2%.
Still for that read-out and setting: next, `C=C1CC[C@@H]2[C@](C)(CCC[C@]2(C)N=C=O)[C@H]1CC[C@H](C)C/C=N/OC(C)=O`: 44.8%.
With `C=C1CC[C@H]2[C@@](C)(CO)CCC[C@]2(C)[C@H]1CC[C@H](C)CCO`, the inhibition in test [1] was determined as 29.5%.
Turning to `C=C1CC[C@@H]2[C@](C)(CCC[C@]2(C)NC(N)=O)[C@H]1CC[C@H](C)C/C=N/OC(C)=O`, the inhibition came to 79.1% in test [2]; 11.2% in test [3]; 31.7% in test [5]; 82.2% in test [6]; 65.3% in test [1]. The half-inhibitory concentration (IC50) in test [4] was 7 µM.
On to `C=C1CC[C@@H]2[C@](C)(CCC[C@]2(C)C(=O)O)[C@H]1CC[C@H](C)CC=O`, for which the inhibition in test [1] was found to be 19.9%.
Consider `C=C1CC[C@@H]2[C@](C)(CCC[C@]2(C)C(=O)O)[C@H]1CC[C@H](C)C/C=N/OC(C)=O`, for which the inhibition in test [1] was found to be 43.5%.
On the same count and under the same terms, the result for `C=C1CC[C@@H]2[C@](C)(CCC[C@]2(C)N=C=O)[C@H]1CC[C@H](C)CN=C=O` reads 45.7%.
For the compound `C=C1CC[C@@H]2[C@](C)(CCC[C@]2(C)NC(N)=O)[C@H]1CC[C@H](C)CCO`, the inhibition in test [2] came to 79.2%; in test [3], 8.2%; in test [5], 25.9%; in test [6] it was 87.2%; in test [1], 61.5%. Also, the IC50 in test [4] turned out to be 6.3 µM.
With `C=C1CC[C@@H]2[C@](C)(CCC[C@]2(C)C(=O)O)[C@H]1CC[C@H](C)C/C=N/O`, the inhibition in test [1] stood at 40.1%.
Turning to `C=C1CC[C@@H]2[C@](C)(CCC[C@]2(C)C(=O)O)[C@H]1CC[C@H](C)CCO` [IMBRICATOLIC ACID], the inhibition in test [2] was determined as 67.2%; in test [3] it was 5.9%; in test [5], 19.2%; in test [6] it was 71.1%; in test [1], 59.2%. The IC50 in test [4] was 8.8 µM.
In the case of `C=C1CC[C@@H]2[C@](C)(CCC[C@]2(C)NC(N)=O)[C@H]1CC[C@H](C)C/C=N/O`, the inhibition was 63.2% in test [2]; 7.1% in test [3]; 38.2% in test [5]; 69.2% in test [6]; 59.9% in test [1]. Further, the half-inhibitory concentration (IC50) in test [4] turned out to be 7.8 µM.
Turning to `C=C1CC[C@@H]2[C@](C)(CCC[C@]2(C)C(=O)OCC)[C@H]1CC[C@H](C)CCO`, the inhibition in test [1] was determined as 23.1%.
